From US20100099088A1, “RELIABLE DETECTION OF VANCOMYCIN-INTERMEDIATE STAPHYLOCOCCUS AUREUS” (priority 2006, published 2010)
Converted amounts (≈) assume the structure as drawn. Like-named read-outs stand apart in the source and are kept apart here.

Key:
[1] = test system: Staphylococcus aureus hVISA/VISA strains; design: key: CG, confluent growth; IC, individual colonies; NG, no growth; conditions: cited from earlier work
[2] = test system: Staphylococcus aureus strains (MRSA, hVISA/VISA); test: Modified (macromethod) Etest, vancomycin MIC, 2 McFarland inoculum; type: cell-based; conditions: for MIC: Staphylococcus aureus; for Modified Etest category: 2 McF inoculum; for Modified Etest category: key: S = sensitive; I = intermediate; R = resistant
Method: (§1) Vancomycin MICs were determined using standard Etest methods. Briefly, colonies from a fresh overnight plate were resuspended in saline to a turbidity equivalent to 0.5 McFarland units. This suspension was swabbed onto Mueller-Hinton agar plates, allowed to dry, and overlaid with a Vancomycin Etest strip (AB Biodisk). Plates were incubated at 37° C. for 48 h and interpreted. […] For some MRSA strains, the macromethod Etest was also applied, using an inoculum equivalent to 2 McFarland units on Brain-Heart Infusion agar plates.

[3] = test system: Staphylococcus aureus strains (MRSA, hVISA/VISA, in vitro-selected); conditions: cited from earlier work; for CLSI Etest category: key: S = sensitive; I = intermediate; R = resistant
[4] = test system: Staphylococcus aureus strains (MRSA, hVISA/VISA, in vitro-selected); test: CLSI-approved (standard) Etest, vancomycin MIC, 0.5 McFarland inoculum; type: cell-based; conditions: for MIC: Staphylococcus aureus; for CLSI Etest category: key: S = sensitive; I = intermediate; R = resistant
Method: as §1

[5] = test system: Japanese strain Mu3; conditions: strain Mu3, tests as susceptible; cited from earlier work
[6] = strain 160013 (NRS283), 0.5 McF inoculum
[7] = strain BR 5 (NRS56), 0.5 McF inoculum
[8] = strain HIP07930 (NRS22), 0.5 McF inoculum
[9] = strain HIP09433 (NRS27), 0.5 McF inoculum
[10] = strain HIP09662 (NRS28), 0.5 McF inoculum
[11] = strain HIP12864 (NRS402), 0.5 McF inoculum
[12] = strain LIM 1 (NRS35), 0.5 McF inoculum
[13] = strain LIM 3 (NRS37), 0.5 McF inoculum
[14] = strain LY-1999 0620-01 (NRS63), 0.5 McF inoculum
[15] = strain LY-1999 0620-02 (NRS64), 0.5 McF inoculum
[16] = strain Mu3 (NRS2), 0.5 McF inoculum
[17] = strain Mu50 (NRS1), 0.5 McF inoculum
[18] = strain NRS118, 0.5 McF inoculum
[19] = strain SA MER (NRS11), 0.5 McF inoculum
[20] = strain SA MER-S20 (NRS14), 0.5 McF inoculum

CN[C@H](CC(C)C)C(=O)N[C@H]1C(=O)N[C@@H](CC(N)=O)C(=O)N[C@H]2C(=O)N[C@H]3C(=O)N[C@H](C(=O)N[C@H](C(=O)O)c4cc(O)cc(O)c4-c4cc3ccc4O)[C@H](O)c3ccc(c(Cl)c3)Oc3cc2cc(c3O[C@@H]2O[C@H](CO)[C@@H](O)[C@H](O)[C@H]2O[C@H]2C[C@](C)(N)[C@H](O)[C@H](C)O2)Oc2ccc(cc2Cl)[C@H]1O [vancomycin]
Agar screen growth ([1]; strain 160013 (NRS283), 48 h incubation): IC (48)
Agar screen growth ([1]; strain BR 5 (NRS56), 24 h incubation): CG (24)
Agar screen growth ([1]; strain HIP07930 (NRS22), 48 h incubation): IC (48)
Agar screen growth ([1]; strain HIP09433 (NRS27), 72 h incubation): NG (72)
Agar screen growth ([1]; strain HIP09662 (NRS28), 72 h incubation): NG (72)
Agar screen growth ([1]; strain HIP12864 (NRS402), 24 h incubation): CG (24)
Agar screen growth ([1]; strain LIM 1 (NRS35), 72 h incubation): NG (72)
Agar screen growth ([1]; strain LIM 3 (NRS37), 72 h incubation): NG (72)
Agar screen growth ([1]; strain LY-1999 0620-01 (NRS63), 48 h incubation): IC (48)
Agar screen growth ([1]; strain LY-1999 0620-02 (NRS64), 72 h incubation): NG (72)
Agar screen growth ([1]; strain Mu3 (NRS2), 72 h incubation): NG (72)
Agar screen growth ([1]; strain Mu50 (NRS1), 24 h incubation): CG (24)
Agar screen growth ([1]; strain NRS118, 24 h incubation): CG (24)
Agar screen growth ([1]; strain SA MER (NRS11), 72 h incubation): NG (72)
Agar screen growth ([1]; strain SA MER-S20 (NRS14), 24 h incubation): CG (24)
MIC ([2]; read-out: Modified Etest MIC, strain CMRSA-1 (MRSA), 2 McF inoculum): 8 µg/mL (≈ 5.52 µM)
MIC ([2]; read-out: Modified Etest MIC, strain CMRSA-2 (MRSA), 2 McF inoculum): 3 µg/mL (≈ 2.07 µM)
MIC ([2]; read-out: Modified Etest MIC, strain CMRSA-3 (MRSA), 2 McF inoculum): 3 µg/mL (≈ 2.07 µM)
MIC ([2]; read-out: Modified Etest MIC, strain CMRSA-4 (MRSA), 2 McF inoculum): 2 µg/mL (≈ 1.38 µM)
Modified Etest category ([2]; strain CMRSA-1 (MRSA)): I
Modified Etest category ([2]; strain CMRSA-2 (MRSA)): S
Modified Etest category ([2]; strain CMRSA-3 (MRSA)): S
Modified Etest category ([2]; strain CMRSA-4 (MRSA)): S
CLSI Etest MIC [3, 6]: 4 µg/mL
CLSI Etest category [3, 6]: I
CLSI Etest MIC [3, 7]: 8 µg/mL
CLSI Etest category [3, 7]: I
CLSI Etest MIC [3, 8]: 4 µg/mL
CLSI Etest category [3, 8]: I
CLSI Etest MIC [3, 9]: 4 µg/mL
CLSI Etest category [3, 9]: I
CLSI Etest MIC [3, 10]: 3 µg/mL
CLSI Etest category [3, 10]: S
CLSI Etest MIC [3, 11]: 8 µg/mL
CLSI Etest category [3, 11]: I
CLSI Etest MIC [3, 12]: 2 µg/mL
CLSI Etest category [3, 12]: S
CLSI Etest MIC [3, 13]: 4 µg/mL
CLSI Etest category [3, 13]: I
CLSI Etest MIC [3, 14]: 8 µg/mL
CLSI Etest category [3, 14]: I
CLSI Etest MIC [3, 15]: 1.5 µg/mL
CLSI Etest category [3, 15]: S
CLSI Etest MIC [3, 16]: 4 µg/mL
CLSI Etest category [3, 16]: I
CLSI Etest MIC [3, 17]: 8 µg/mL
CLSI Etest category [3, 17]: I
CLSI Etest MIC [3, 18]: 8 µg/mL
CLSI Etest category [3, 18]: I
CLSI Etest MIC [3, 19]: 2 µg/mL
CLSI Etest category [3, 19]: S
CLSI Etest MIC [3, 20]: 8 µg/mL
CLSI Etest category [3, 20]: I
MIC ([4]; ATCC 29213 / MRSA / VISA, control strain S. aureus ATCC29213, read-out: MIC (standard Etest)): 1.5 µg/mL (≈ 1.04 µM)
MIC ([4]; in vitro strain C1V8 derived from CMRSA-1, read-out: CLSI Etest MIC): 10 µg/mL (≈ 6.9 µM)
MIC ([4]; in vitro strain C1V30 derived from CMRSA-1, read-out: CLSI Etest MIC): 16 µg/mL (≈ 11 µM)
MIC ([4]; in vitro strain C2V4 derived from CMRSA-2, read-out: CLSI Etest MIC): 6 µg/mL (≈ 4.14 µM)
MIC ([4]; in vitro strain C2V8 derived from CMRSA-2, read-out: CLSI Etest MIC): 9 µg/mL (≈ 6.21 µM)
MIC ([4]; in vitro strain C2V24 derived from CMRSA-2, read-out: CLSI Etest MIC): 30 µg/mL (≈ 20.7 µM)
MIC ([4]; in vitro strain C3V24 derived from CMRSA-3, read-out: CLSI Etest MIC): 20 µg/mL (≈ 13.8 µM)
MIC ([4]; in vitro strain C4V8 derived from CMRSA-4, read-out: CLSI Etest MIC): 5 µg/mL (≈ 3.45 µM)
MIC ([4]; read-out: CLSI Etest MIC, in vitro strain C1V4 derived from CMRSA-1): 5 µg/mL (≈ 3.45 µM)
MIC ([4]; strain CMRSA-1 (MRSA), 0.5 McF inoculum, read-out: CLSI Etest MIC): 1.5 µg/mL (≈ 1.04 µM)
MIC ([4]; strain CMRSA-2 (MRSA), 0.5 McF inoculum, read-out: CLSI Etest MIC): 1.5 µg/mL (≈ 1.04 µM)
MIC ([4]; strain CMRSA-4 (MRSA), 0.5 McF inoculum, read-out: CLSI Etest MIC): 1 µg/mL (≈ 0.69 µM)
CLSI Etest category ([4]; in vitro strain C1V4 derived from CMRSA-1): I
CLSI Etest category ([4]; in vitro strain C1V8 derived from CMRSA-1): I
CLSI Etest category ([4]; in vitro strain C1V30 derived from CMRSA-1): I
CLSI Etest category ([4]; in vitro strain C2V4 derived from CMRSA-2): I
CLSI Etest category ([4]; in vitro strain C2V8 derived from CMRSA-2): I
CLSI Etest category ([4]; in vitro strain C2V24 derived from CMRSA-2): I
CLSI Etest category ([4]; in vitro strain C3V4 derived from CMRSA-3): S
CLSI Etest category ([4]; in vitro strain C3V8 derived from CMRSA-3): I
CLSI Etest category ([4]; in vitro strain C3V24 derived from CMRSA-3): I
CLSI Etest category ([4]; in vitro strain C4V8 derived from CMRSA-4): I
CLSI Etest category ([4]; in vitro strain C4V20 derived from CMRSA-4): I
CLSI Etest category ([4]; strain CMRSA-1 (MRSA), 0.5 McF inoculum): S
CLSI Etest category ([4]; strain CMRSA-2 (MRSA), 0.5 McF inoculum): S
CLSI Etest category ([4]; strain CMRSA-3 (MRSA), 0.5 McF inoculum): S
CLSI Etest category ([4]; strain CMRSA-4 (MRSA), 0.5 McF inoculum): S
MIC (minimum inhibitory concentration) [5]: < 4 µg/mL
